Reference: publication PMC10279719 (Nature Communications, 2023)
pKd: −log10 of the molar value. Values belong to the molecule of their own block, whether it stands above or below them.

Assays:
14-3-3ε = molecular target: T1, 14-3-3ε (Homo sapiens, UniProt P62258); assay: SPR, PEAK tandem peptides binding to immobilised 14-3-3ε; conditions: peptide analyte over amine-coupled 14-3-3ε (CM5); Biacore S200, HBS-TP pH 7.4, 20 °C; steady-state 1:1 fit; mean ± S.E.M.; read-out: SPR KD, 14-3-3ε (epsilon)
T1 construct: 14-3-3ε (UniProt P62258-1; residues 1–255); 8-His tag with TEV protease cleavage site (N); made in house; host or cells: E. coli C41 (DE3)
T1 sequence (P62258 1-255): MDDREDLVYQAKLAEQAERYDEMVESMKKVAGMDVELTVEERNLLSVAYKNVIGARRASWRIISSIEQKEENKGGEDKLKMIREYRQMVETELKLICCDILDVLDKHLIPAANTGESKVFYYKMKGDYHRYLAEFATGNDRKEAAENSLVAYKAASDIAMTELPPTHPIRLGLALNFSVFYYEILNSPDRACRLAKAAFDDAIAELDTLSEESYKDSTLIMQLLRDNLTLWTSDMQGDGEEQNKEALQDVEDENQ
Method: Purified […]3 was diluted to 5 μg ml^-1 in 10 mM sodium acetate pH 4.0 and amine coupled at 25 °C to a Series S CM5 sensor chip, in HBS-N running buffer (20 mM HEPES pH 7.4, 150 mM NaCl) to a final immobilization level of 1100-1400 response units (RU), followed by surface deactivation using 1 M ethanolamine. A blank activation/deactivation was used for the reference surface. […] PEAK PRM peptides: […] Samples were injected in a multi-cycle run (flow rate 30 μl min^-1, contact time of 60 s, dissociation 120 s) without regeneration. Sensorgrams were double referenced, and steady-state binding data fitted using a 1:1 binding model using Biacore S200 Evaluation Software (Cytiva, v. 1.1). […] Representative sensorgrams and fitted dissociation constant (KD) values, depicted as mean ± S.E.M.

CrkII^NSH3 [1] = molecular target: T2, CrkII^NSH3 (Homo sapiens, UniProt P46108); assay: SPR, CrkII NSH3 binding to immobilised PEAK proteins; conditions: read-out: CrkII NSH3 SPR KD; interactor as analyte over biotinylated PEAK protein captured with biotin CAPture kit; Biacore 8K+, HBS-TP, 20 °C; steady-state fit; mean ± SD (N = 2); read-out: CrkII-SH2 SPR KD
T2 construct: CrkII^NSH3; UniProt P46108-1, residues 134–191; 8-His tag with TEV protease cleavage site (N); made in house; host or cells: E. coli C41 (DE3)
Method: (§1) SPR binding studies of PEAK PRM peptides to CrkII^NSH3 were performed using a Biacore S200 Instrument (Cytiva). Purified CrkII^NSH3 was diluted to 5 µg ml^−1 in 10 mM sodium acetate pH 4.0 and amine coupled at 25 °C to a Series S CM5 sensor chip, in HBS-N running buffer (20 mM HEPES pH 7.4, 150 mM NaCl) to a final immobilization level of 1100–1400 response units (RU), followed by surface deactivation using 1 M ethanolamine. A blank activation/deactivation was used for the reference surface. Peptide binding studies were performed at 20 °C in HBS-TP running buffer (20 mM HEPES pH 7.4, 150 mM NaCl, 1 mM TCEP, 0.005% (v/v) Tween-P20). […] Peptide stocks were further diluted to in running buffer to 10 or 20 µM and prepared as a 11-point concentration series (2-fold serial dilution, […] for PEAK PRM peptides, or 20 µM–20 nM for PEAK tandem motif peptides). Samples were injected in a multi-cycle run (flow rate 30 µl min^−1, contact time of 60 s, dissociation 120 s) without regeneration. Sensorgrams were double referenced, and steady-state binding data fitted using a 1:1 binding model using Biacore S200 Evaluation Software (Cytiva, v. 1.1).
(§2) SPR binding studies of PEAK proteins to full length CrkII/Grb2 and sub-domains were performed using a Biacore 8K+ Instrument (Cytiva) and analyzed using Biacore Insight Evaluation Software (v. 3.0.12.15655). […] Binding studies and steady-state data analysis were performed as described for CrkII^NSH3 with the inclusion of an additional surface regeneration step (60 s injection of 1 M NaCl) between cycles.

CrkII^SH2 = molecular target: T3, CrkII^SH2 (Homo sapiens, UniProt P46108); assay: SPR, CrkII SH2 binding to immobilised PEAK proteins; conditions: interactor as analyte over biotinylated PEAK protein (biotin CAPture); Biacore 8K+, HBS-TP with 500 mM NaCl, 20 °C; steady-state fit; mean ± S.E.M. (N = 3)
T3 construct: CrkII^SH2; UniProt P46108-1, residues 6–120; 8-His tag with TEV protease cleavage site (N); made in house; host or cells: E. coli C41 (DE3)
Method: as §1, §2

14-3-3ɣ = assay: SPR, 14-3-3ɣ binding to immobilised PEAK proteins; parameters: species or system human; conditions: 14-3-3ɣ analyte 0.46–1000 nM, multi-cycle, over immobilised biotinylated PEAK protein; Biacore 8K+, 20 °C; KD only an estimate (bivalent analyte model); N = 3
Method: PEAK proteins and adapters proteins (full length or individual domains) were biotinylated using EZ-Link™ NHS-PEG4-Biotin (Thermo Fisher) at a 1:1 molar ratio (100 µM) for 1 h at room temperature, then excess biotin was removed by buffer exchange using a Zeba™ Spin Desalting Column (Thermo Fisher) into HBS-T buffer (20 mM HEPES pH 7.4, 150 mM NaCl, 1 mM TCEP).
SPR binding studies of PEAK proteins to full length CrkII/Grb2 and sub-domains were performed using a Biacore 8K+ Instrument (Cytiva) and analyzed using Biacore Insight Evaluation Software (v. 3.0.12.15655). […] Biotinylated PEAK proteins (with or without Src phosphorylation; 500 nM in HBS-TP) were immobilized using a biotin CAPture kit (Cytiva) in HBS-TP running buffer at 20 °C. Binding studies and steady-state data analysis were performed as described for CrkII^NSH3 with the inclusion of an additional surface regeneration step (60 s injection of 1 M NaCl) between cycles. For Grb2^FL, Grb2^SH2, CrkII^SH2, CrkII^FL monomer and CrkII^FL dimer, to reduce nonspecific interactions the HBS-TP running buffer was supplemented with additional NaCl to a final concentration of 500 mM.
Binding studies for 14-3-3ɣ were undertaken in the same way in multi cycle mode (8 point, 3-fold serial dilution series, 0.46–1000 nM, 60 s contact time, 300 s dissociation).

14-3-3η = molecular target: T4, 14-3-3η (Homo sapiens, UniProt Q04917); assay: SPR, PEAK tandem peptides binding to immobilised 14-3-3η; conditions: peptide analyte over amine-coupled 14-3-3η (CM5); Biacore S200, HBS-TP pH 7.4, 20 °C; steady-state 1:1 fit; mean ± S.E.M.; read-out: SPR KD, 14-3-3η (eta)
T4 construct: 14-3-3η (UniProt Q04917-1; residues 1–246); 8-His tag with TEV protease cleavage site (N); made in house; host or cells: E. coli C41 (DE3)
T4 sequence (Q04917 1-246): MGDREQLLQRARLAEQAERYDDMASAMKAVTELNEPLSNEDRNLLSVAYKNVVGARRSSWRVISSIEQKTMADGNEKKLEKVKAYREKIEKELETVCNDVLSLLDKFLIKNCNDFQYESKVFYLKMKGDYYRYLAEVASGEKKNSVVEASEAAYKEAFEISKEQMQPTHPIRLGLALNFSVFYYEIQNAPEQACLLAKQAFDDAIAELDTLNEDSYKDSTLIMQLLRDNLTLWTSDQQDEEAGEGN
Method: (§3) Purified […]3 was diluted to 5 μg ml^-1 in 10 mM sodium acetate pH 4.0 and amine coupled at 25 °C to a Series S CM5 sensor chip, in HBS-N running buffer (20 mM HEPES pH 7.4, 150 mM NaCl) to a final immobilization level of 1100-1400 response units (RU), followed by surface deactivation using 1 M ethanolamine. A blank activation/deactivation was used for the reference surface. […] Samples were injected in a multi-cycle run (flow rate 30 μl min^-1, contact time of 60 s, dissociation 120 s) without regeneration. Sensorgrams were double referenced, and steady-state binding data fitted using a 1:1 binding model using Biacore S200 Evaluation Software (Cytiva, v. 1.1). […] Representative sensorgrams and fitted dissociation constant (KD) values, depicted as mean ± S.E.M.

14-3-3γ = molecular target: T5, 14-3-3γ (Homo sapiens, UniProt P61981); assay: SPR, PEAK peptides binding to immobilised 14-3-3γ; conditions: peptide analyte over amine-coupled 14-3-3γ (CM5); Biacore S200, HBS-TP pH 7.4, 20 °C; steady-state 1:1 fit; mean ± S.E.M.
T5 construct: 14-3-3γ (UniProt P61981-1; residues 1–247); 8-His tag with TEV protease cleavage site (N); made in house; host or cells: E. coli C41 (DE3)
T5 sequence (P61981 1-247): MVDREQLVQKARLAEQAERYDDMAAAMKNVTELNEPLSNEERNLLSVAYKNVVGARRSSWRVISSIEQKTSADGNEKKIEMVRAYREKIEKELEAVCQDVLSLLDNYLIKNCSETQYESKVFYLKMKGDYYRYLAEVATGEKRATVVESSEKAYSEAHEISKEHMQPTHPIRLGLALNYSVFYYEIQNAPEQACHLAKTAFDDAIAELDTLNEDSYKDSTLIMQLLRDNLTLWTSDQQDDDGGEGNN
Method: as §3

CrkII^NSH3 [2] = molecular target: T2, CrkII^NSH3; assay: ITC, CrkII NSH3 titrated into PEAK3 tandem peptides (binary) or peptide:14-3-3γ complexes (ternary); format: binding; conditions: individual run, repeat 1, CrkII N-SH3 400 µM into the labelled complex 16.8 µM (Titrations 10, 12, 16)
Method: ITC binding experiments were conducted using a MicroCal iTC200 instrument (Malvern Instruments). Titrations were conducted at 25 °C in reverse mode (peptide in cell, protein in syringe) and consisted of 19 injections of 2 μl […] at a rate of 2 s μl^−1 at 90 s time intervals, whilst stirring at 1000 rpm. An initial injection of 0.4 μl protein was made and discarded during data analysis. Proteins (14-3-3ɣ or CrkII^NSH3) were first dialyzed overnight at 4 °C into ITC buffer (20 mM HEPES pH 7.4, 150 mM NaCl, 1 mM TCEP), filtered and degassed under vacuum. […] Following the first titration, excess solution was removed from the cell, and the syringe was washed and dried. […] All data were fitted to a single binding site model to obtain the stoichiometry (N), dissociation constant (KD) and the enthalpy of binding (ΔH), using MicroCal PEAQ-ITC Analysis software (v.1.41).

T2 sequence (P46108 134-191): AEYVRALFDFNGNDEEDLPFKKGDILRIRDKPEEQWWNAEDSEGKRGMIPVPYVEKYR
T3 sequence (P46108 6-120): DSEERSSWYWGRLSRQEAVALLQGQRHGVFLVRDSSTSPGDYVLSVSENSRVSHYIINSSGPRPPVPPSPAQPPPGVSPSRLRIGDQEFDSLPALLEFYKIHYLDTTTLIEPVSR

pKd (14-3-3ε): 6.11
Molecule: CC[C@H](C)[C@H](NC(=O)[C@H](CCCCN)NC(=O)[C@H](CCCCN)NC(=O)[C@@H]1CCCN1C(=O)[C@H](CC(C)C)NC(=O)[C@@H]1CCCN1C(=O)[C@@H]1CCCN1C(=O)[C@@H]1CCCN1C(=O)[C@H](CC(C)C)NC(=O)[C@@H]1CCCN1C(C)=O)C(=O)N[C@@H](CC(C)C)C(=O)N[C@H](C(=O)N[C@@H](CCCNC(=N)N)C(=O)N[C@H](C(=O)N[C@@H](CCC(N)=O)C(=O)N[C@@H](COP(=O)(O)O)C(=O)N[C@@H](CC(C)C)C(=O)N1CCC[C@H]1C(=O)N[C@H](C(=O)N[C@@H](CCCNC(=N)N)C(=O)N[C@@H](CCCNC(=N)N)C(N)=O)[C@@H](C)O)[C@@H](C)O)[C@@H](C)O (single isomer, unassigned) [PEAK3^tandem-pS69]

pKd (CrkII^NSH3 [1]): 5.41 | SPR KD, CrkII-SH2 (CrkII^SH2): No binding | pKd (14-3-3ɣ): > 6.00 | SPR KD, 14-3-3ɣ (14-3-3ɣ): bound strongly
Molecule: PEAK3-FL: full length human PEAK3 (1–473) from insect cells, S69 phosphorylated, purified as 14-3-3 complex

pKd (14-3-3ε): 5.13 | pKd (14-3-3η): 5.72
Molecule: CC[C@H](C)[C@H](NC(=O)[C@H](CCCCN)NC(=O)[C@H](CCCCN)NC(=O)[C@H](CCC(N)=O)NC(=O)[C@@H]1CCCN1C(=O)[C@H](CC(C)C)NC(=O)[C@@H]1CCCN1C(=O)[C@@H]1CCCN1C(=O)[C@@H]1CCCN1C(C)=O)C(=O)N[C@H](C(=O)N[C@@H](CO)C(=O)N[C@@H](CCCNC(=N)N)C(=O)N[C@@H](C)C(=O)N[C@@H](C)C(=O)N[C@@H](COP(=O)(O)O)C(=O)N[C@@H](CO)C(=O)N1CCC[C@H]1C(=O)N[C@@H](CC(=O)O)C(=O)NCC(=O)N[C@@H](Cc1ccccc1)C(N)=O)C(C)C (single isomer, unassigned) [PEAK2^tandem-pS826]

SPR KD, 14-3-3γ (gamma) (14-3-3γ): No binding
Molecule: CC[C@H](C)[C@H](NC(=O)[C@H](CCCCN)NC(=O)[C@H](CCCCN)NC(=O)[C@@H]1CCCN1C(=O)[C@H](CC(C)C)NC(=O)[C@@H]1CCCN1C(=O)[C@@H]1CCCN1C(=O)[C@@H]1CCCN1C(=O)[C@H](CC(C)C)NC(=O)[C@@H]1CCCN1C(C)=O)C(=O)N[C@@H](CC(C)C)C(=O)N[C@H](C(=O)N[C@@H](CCCNC(=N)N)C(N)=O)[C@@H](C)O (single isomer, unassigned) [PEAK3^54–66]

ITC -T∆S (CrkII^NSH3 [2]): -3.23 kcal/mol | ITC N (sites) (CrkII^NSH3 [2]): 0.69 | ITC ∆G (CrkII^NSH3 [2]): -7.36 kcal/mol | ITC ∆H (CrkII^NSH3 [2]): -4.16 kcal/mol
Molecule: CC[C@H](C)[C@H](NC(=O)[C@H](CCCCN)NC(=O)[C@H](CCCCN)NC(=O)[C@@H]1CCCN1C(=O)[C@H](CC(C)C)NC(=O)[C@@H]1CCCN1C(=O)[C@@H]1CCCN1C(=O)[C@@H]1CCCN1C(=O)[C@H](CC(C)C)NC(=O)[C@@H]1CCCN1C(C)=O)C(=O)N[C@@H](CC(C)C)C(=O)N[C@H](C(=O)N[C@@H](CCCNC(=N)N)C(=O)N[C@H](C(=O)N[C@@H](CCC(N)=O)C(=O)N[C@@H](COP(=O)(O)O)C(=O)N[C@@H](CC(C)C)C(=O)N1CCC[C@H]1C(=O)N[C@H](C(=O)N[C@@H](CCCNC(=N)N)C(=O)N[C@@H](CCCNC(=N)N)C(N)=O)[C@@H](C)O)[C@@H](C)O)[C@@H](C)O (single isomer, unassigned) [PEAK3 tandem-pS69 : 14-3-3γ (K50E)]
